Reference: paper PMC6100724, “Proteome‐wide analysis of phospho‐regulated PDZ domain interactions” (Molecular Systems Biology, 2018)
Square brackets hold non-standard residues; d marks the D form. Peptide text beside a SMILES is read from it. * marks the point of attachment. FITC = O=C1OC2(c3ccc(O)cc3Oc3cc(O)ccc32)c2ccc(NC(=S)*)cc21; pS = N[C@@H](COP(=O)(O)O)C(=O)O

Experiments:
[1] = target: T1, DLG1 PDZ2 (Homo sapiens, UniProt Q12959); assay: MST affinity measurement, FITC-labeled peptides vs DLG1 PDZ2; assay type: binding; settings: FITC-labeled peptide fixed at 25–50 nM, titrated with DLG1 PDZ2 (aa 311–407), 50 mM Tris–HCl pH 7.4, 0.1% Tween‐20, thermophoresis and T Jump signal, mean ± SD, n = 3, read-out: KD values, DLG1 PDZ2 (table row head: DLG PDZ1), MST
T1 construct: human DLG1 PDZ2 aa 311–407 in a modified pRSET vector 40; made in house; host or cells: E. coli BL21 Gold (DE3)
Description: (§1) Glutathione transferase (GST)‐tagged PDZ domains and GST for phage display selections were expressed and purified as described previously (Tonikian et al, 2008; Ivarsson et al, 2014). Protein expression for MST, ITC, and NMR experiments was as follows: Plasmids encoding His‐tagged proteins (human Scribble PDZ1 aa 719–829 in pETM‐11, human DLG1 PDZ2 aa 311–407 in a modified pRSET vector 40, or human Shank1 PDZ aa 652–761 in pETM‐33) were transformed into E. coli BL21 Gold (DE3; Agilent), and the proteins were expressed in 2YT media supplemented with appropriate antibiotic (70 or 100 μg/ml carbenicillin). Protein expression was induced upon reaching an OD600 of 0.8 by adding 1 mM isopropyl β‐D‐1‐thiogalactopyranoside (IPTG) final concentration and allowed for 4 h at 30°C.
Scribble PDZ1 for NMR experiments was expressed in M9 salt enriched with 13C D‐glucose and 15N ammonium chloride. Bacteria were harvested by centrifugation at 10,000 × g for 20 min at 4°C. The pellets were resuspended in PBS supplemented with 5 mM CaCl2, 10 μg/ml DNaseI, and 1 mg/ml lysozyme and protease inhibitor (cOmplete Mini EDTA‐free; Sigma‐Aldrich) and incubated for 1 h at 4°C. The lysates were subjected to sonication in 1‐ to 3‐s pulses for 20 pulses. The lysate was cleared by centrifugation at 20,000 × g for 1 h. […]

[2] = target: T2, Scribble PDZ1 (Homo sapiens, UniProt Q14160); assay: ITC titration, wild-type Scribble PDZ1; assay type: binding; settings: unlabeled 9-mer peptides, 20 mM HEPES pH 7.4, 25°C, 50–100 μM protein in cell, 0.64–3 mM peptide in syringe, single-site fit, mean ± SD
T2 construct: human Scribble PDZ1 aa 719–829 in; made in house; host or cells: E. coli BL21 Gold (DE3)
Description: as §1
Scribble PDZ1 for NMR experiments was expressed in M9 salt enriched with 13C D‐glucose and 15N ammonium chloride. Bacteria were harvested by centrifugation at 10,000 × g for 20 min at 4°C. The pellets were resuspended in PBS supplemented with 5 mM CaCl2, 10 μg/ml DNaseI, and 1 mg/ml lysozyme and protease inhibitor (cOmplete Mini EDTA‐free; Sigma‐Aldrich) and incubated for 1 h at 4°C. The lysates were subjected to sonication in 1‐ to 3‐s pulses for 20 pulses. […]
Peptides and proteins were dialyzed in the same beaker in 20 mM HEPES, pH 7.4. […] The results were analyzed using Origin 7 (OriginLab Corporation). […]

[3] = system: DLG1 PDZ3; assay: Phosphomimetic ProP-PD selection with NGS; assay type: binding, human; settings: mean of selections 1-3; bait DLG1 PDZ3
Summary of the method: (§2)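 Selections were run for four rounds on immobilized PDZ domains, with non-specific phage depleted on GST each round. Enriched pools from the third day were sequenced, and interactions were ranked by each peptide's share of NGS reads.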

[4] = system: DLG1 PDZ1; assay: Phosphomimetic ProP-PD selection with NGS; assay type: binding, human; settings: mean of selections 1-3; bait DLG1 PDZ1; phosphomimetic peptide
Summary of the method: as §2

[5] = system: Scribble PDZ3; assay: Phosphomimetic ProP-PD selection with NGS; assay type: binding, human; settings: mean over selections 1-3; bait Scribble PDZ3
Summary of the method: as §2

[6] = system: Scribble PDZ2; assay: Phosphomimetic ProP-PD selection with NGS; assay type: binding, human; settings: bait Scribble PDZ2; mean of selections 1 and 2 (selection 3 empty)
Summary of the method: as §2

[7] = target: T2, Scribble PDZ1; assay: Phosphomimetic ProP-PD selection with NGS; assay type: binding; settings: bait Scribble PDZ1; mean of selections 1-3
Summary of the method: as §2

[8] = target: T1, DLG1 PDZ2; assay: Phosphomimetic ProP-PD selection with NGS; assay type: binding; settings: mean of selections 1-3; bait DLG1 PDZ2
Summary of the method: as §2

T1 sequence (Q12959 311-407): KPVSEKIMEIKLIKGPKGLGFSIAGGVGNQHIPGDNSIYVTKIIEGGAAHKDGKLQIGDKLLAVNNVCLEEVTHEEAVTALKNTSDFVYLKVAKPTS
T2 sequence (Q14160 719-829): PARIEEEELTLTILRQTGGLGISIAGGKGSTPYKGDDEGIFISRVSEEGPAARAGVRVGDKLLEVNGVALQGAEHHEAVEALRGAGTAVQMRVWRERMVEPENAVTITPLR

For `CC[C@H](C)[C@H](NC(=O)[C@H](Cc1ccccc1)NC(=O)[C@H](CO)NC(=O)[C@H](CCCNC(=N)N)NC(=O)[C@H](CCCCN)NC(=S)Nc1ccc2c(c1)C(=O)OC21c2ccc(O)cc2Oc2cc(O)ccc21)C(=O)N[C@@H](CCC(=O)O)C(=O)N[C@@H](CO)C(=O)N[C@@H](CC(N)=O)C(=O)N[C@H](C(=O)O)C(C)C` [TANC1] ({FITC}-KRSFIESNV-OH), the Kd [1] was 2.7 ± 0.1 µM.
For “ARVSKEpTPL [pMAPK12, p‐2 phosphorylated MAPK12 peptide]”, the “KD values, Scribble PDZ1, ITC” value ([2]; n = 3) was “no binding” and the “KD values, Scribble PDZ1, ITC” value ([2]; n = 3, listed as phosphorylated MAPK12) was “no interaction was observed”.
For VWLRKEERV, the “Mean fraction #NGS counts mimetic peptide / total count selection” value [3] was 9.275e-5, the “Mean fraction #NGS counts mimetic peptide / total count selection” value [4] was 0 and the “Mean fraction #NGS counts mimetic peptide / total count selection” value [5] was 0. For the same compound, the “Mean fraction #NGS counts mimetic peptide / total count selection” value [6] was 0, the “Mean fraction #NGS counts mimetic peptide / total count selection” value [7] was 0 and the “Mean fraction #NGS counts mimetic peptide / total count selection” value [8] was 3.584e-5.
`CC[C@H](C)[C@H](NC(=O)[C@H](Cc1ccccc1)NC(=O)[C@H](COP(=O)(O)O)NC(=O)[C@H](CCCNC(=N)N)NC(=O)[C@H](CCCCN)NC(=S)Nc1ccc2c(c1)C(=O)OC21c2ccc(O)cc2Oc2cc(O)ccc21)C(=O)N[C@@H](CCC(=O)O)C(=O)N[C@@H](CO)C(=O)N[C@@H](CC(N)=O)C(=O)N[C@H](C(=O)O)C(C)C` [pTANC1, FITC‐KRpSFIESNV] ({FITC}-KR[pS]FIESNV-OH) showed a Kd [1] of 6.1 ± 0.7 µM.
